Assay results published in PubChem BioAssay (NCI).
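Where inhibition never reached the appropriate level, the endpoint shown equals the highest concentration tested. Otherwise, values were interpolated linearly from a five-concentration, 48-hour dose response in 96-well plates. GI50 is the concentration that inhibits growth by half. TGI is the concentration that stops growth completely.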

How the values were obtained:
Assay in all cases: NCI tumour cell line growth inhibition, 48 h
[1] = system: A498 renal
[2] = system: HL-60(TB) leukemia
[3] = system: MALME-3M melanoma
[4] = system: OVCAR-8 ovarian
[5] = system: SF-268 CNS
[6] = system: TK-10 renal
[7] = system: UACC-257 melanoma
[8] = system: UO-31 renal
[9] = system: SF-539 CNS
[10] = system: SNB-75 CNS

Structure (SMILES) | TGI [1] [µM] | TGI [2] [µM] | TGI [3] [µM] | TGI [4] [µM] | TGI [5] [µM] | TGI [6] [µM] | TGI [7] [µM] | TGI [8] [µM] | TGI [9] [µM] | TGI [10] [µM] | GI50 [1] [nM] | GI50 [2] [nM] | GI50 [3] [nM] | GI50 [4] [nM] | GI50 [9] [µM] | GI50 [10] [nM] | GI50 [6] [nM] | GI50 [7] [nM] | GI50 [8] [nM]
NCc1ccc(C(=O)O)cc1 | > 100 | > 100 | > 100 | > 100 | > 100 | > 100 | > 100 | > 100 | – | – | – | – | – | – | – | – | – | – | –
CCO/N=[N+](\[O-])N(CC)CC | > 100 | > 100 | – | > 100 | > 100 | > 100 | > 100 | > 100 | > 100 | – | – | – | – | – | – | – | – | – | –
COc1cc(C2c3cc4c(cc3[C@@H](Nc3cccc(C(C)=O)c3)C3COC(=O)[C@H]23)OCO4)cc(OC)c1O (stereo partly drawn) | 1.6 | 0.328 | 15 | > 28.9 | 13.1 | – | 8.57 | 6.89 | 1.24 | – | – | – | – | – | – | – | – | – | –
CC[n+]1c(/C=C/c2ccc(N(CCCl)CCCl)cc2)ccc2cc(NC(=O)/C=C/c3ccccc3)ccc21 | 27.4 | 0.389 | 0.81 | 5.7 | 1.96 | 24.5 | 1.13 | 52.2 | 2.03 | 1.05 | – | – | – | – | – | – | – | – | –
ClCc1c(Cl)c(Cl)c(Cl)c(CCl)c1Cl | 12.5 | 4.07 | 3.79 | 6.03 | – | 2.89 | 3.45 | 3.12 | 13.5 | 7.73 | 2450 | 2030 | 1550 | 2510 | 3.72 | 2150 | 1560 | 1840 | 1630
CN(C)c1ccc(N=Nc2ccccn2)cc1 | 94.7 | 52.3 | > 100 | > 100 | > 100 | > 100 | 25.7 | 79.8 | > 100 | > 100 | – | – | – | – | – | – | – | – | –
Brc1ccccc1-c1ncc(-c2ccccc2)o1 | 60.5 | > 100 | 76.3 | > 100 | > 100 | > 100 | > 100 | > 100 | 77.1 | 59.7 | – | – | – | – | – | – | – | – | –
COc1ccc(-c2cc(N3CCN(c4ccccc4)CC3)c(C#N)c(=O)o2)cc1 | 64.9 | > 100 | 53.7 | > 100 | 49.3 | 58 | > 100 | 44.8 | 41.5 | 31.7 | – | – | – | – | – | – | – | – | –
COc1ccc(NC(=O)/C(CC2=Nc3ccc([N+](=O)[O-])cc3NC2O)=N\NC(=O)C[N+](C)(C)C)c(OC)c1 (stereo not drawn) | – | > 100 | – | 69.8 | > 100 | > 100 | > 100 | > 100 | > 100 | > 100 | – | – | – | – | – | – | – | – | –
CCOC(=O)/C=C(\C)c1ccc(OC)cc1 | > 100 | > 100 | > 100 | > 100 | > 100 | > 100 | > 100 | > 100 | > 100 | > 100 | – | – | – | – | – | – | – | – | –
CC(C)C[P+](c1ccccc1)(c1ccccc1)c1ccccc1 | > 100 | 24 | 83.6 | – | > 100 | 66.5 | 4.19 | > 100 | > 100 | > 100 | – | – | – | – | – | – | – | – | –
C=C1C(=O)OC2C1CC(O)/C(C)=C\CCC1(C)OC21 (stereo not drawn) | > 100 | 83.8 | 45.4 | > 100 | 86.6 | > 100 | > 100 | 66.6 | > 100 | > 100 | – | – | – | – | – | – | – | – | –
Cc1nc2ccccc2c(=O)[nH]1 | > 100 | > 100 | > 100 | > 100 | > 100 | > 100 | > 100 | > 100 | > 100 | > 100 | – | – | – | – | – | – | – | – | –
N#Cc1c(NC(=S)NC(=O)c2ccccc2)nc2c(c1-c1ccccc1)CCCC2 | – | > 100 | – | > 100 | 27.2 | > 100 | > 100 | > 100 | – | 41.5 | – | – | – | – | – | – | – | – | –
CC(C)(Br)C1(O)CCCN1C(=O)c1ccccc1 (stereo not drawn) | > 100 | > 100 | > 100 | > 100 | > 100 | > 100 | > 100 | > 100 | > 100 | > 100 | – | – | – | – | – | – | – | – | –
CCC(C)C(=O)c1c(O)c(C/C=C(\C)CCC=C(C)C)c(O)c2c(C(O)CC)cc(=O)oc12 (stereo not drawn) | 6.15 | 3.48 | 5.28 | – | 10.8 | 13.1 | 6.84 | 6.95 | 7.43 | 5.84 | – | – | – | – | – | – | – | – | –
COc1ccc(NC(=O)/C(=C/c2ccc(N(CCC#N)CCC#N)cc2)NC(=O)c2cc([N+](=O)[O-])ccc2Cl)cc1 | – | – | > 100 | > 100 | > 100 | > 100 | – | > 100 | 50.8 | – | – | – | – | – | – | – | – | – | –
NCc1ccccc1C1CSCSC1 | – | > 100 | > 100 | > 100 | > 100 | > 100 | > 100 | > 100 | > 100 | > 100 | – | – | – | – | – | – | – | – | –
O=[N+]([O-])c1cn[n+]([O-])c2ccccc12 | 40.1 | 3.59 | 29.4 | 11.6 | 17.9 | 25.8 | 26.2 | – | 22.7 | – | – | – | – | – | – | – | – | – | –
